Where a name gives a salt, the structure may show the parent alone. Read-outs that look alike come from different tables or passages of the source.
Columns and labels:
[1] = system: LPS-induced microglia activation; assay: Image-based assay of LPS-induced microglia activation (HTS and dose response); format: cell-based, rat; conditions: for inhibition at 10 µM: Rattus norvegicus, Microglia, read-out: LPS % inhibition
[2] = system: fibrin-induced microglia activation; assay: Image-based assay of fibrin-induced microglia activation (HTS and dose response); format: cell-based, rat; conditions: for inhibition at 10 µM: Rattus norvegicus, Microglia, read-out: Fibrin % inhibition
primary rat microglia [3] = system: primary rat microglia
[4] = system: fibrin- and LPS-induced microglia activation; assay: cells; format: cell-based, rat
primary rat microglia [5] = conditions: rat
primary rat microglia [6] = assay: Cell toxicity (dead cells, size <150 μm2) in coated fibrin (cFib) assay;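 also: share of dead cells sized under 150 µm2 at 10 µM in fibrin-stimulated microglia HTS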
primary rat microglia [7] = assay: Cell toxicity (dead cells, size <150 μm2) in LPS assay
[8] = primary microglia HTS, LPS stimulation, increased cell size (>800 μm^2) as marker of activation
[9] = primary microglia HTS, fibrin stimulation, increased cell size (>800 μm^2) as marker of activation
[10] = quadrant by fibrin and LPS inhibition in HTS of 1907 compounds
[11] = primary HTS, 10 μM, fibrin assay, dead cells size <150 μm2
[12] = primary HTS, 10 μM, LPS-stimulated primary microglia
[13] = primary HTS, 10 μM, LPS assay, dead cells size <150 μm2
[14] = primary HTS, 10 μM, fibrin-stimulated primary microglia

With `CN(Cc1cnc2nc(N)nc(N)c2n1)c1ccc(C(=O)N[C@@H](CCC(=O)O)C(=O)O)cc1` (racemic) [Methotrexate(+/−)] the LPS % inhibition [1, 8] was 0%, the Fibrin % inhibition [2, 9] was 0% and the “Fibrin % cell toxicity” value (primary rat microglia [3]) was 0%.
In the case of `C#C[C@]1(O)CC[C@H]2[C@@H]3CCC4=CC(=O)CC[C@@H]4[C@H]3CC[C@@]21C` [Norethindrone], the LPS % inhibition [1] is reported as 15%, the “Quadrant (FIG. 5b)” value [4] is reported as “Q4” and the inhibition at 10 µM [2] is reported as 9%. The “Fibrin % cell toxicity” value (primary rat microglia [3]; rat) was 0%.
`CC[C@H](C)C(=O)O[C@H]1C[C@@H](C)C=C2C=C[C@H](C)[C@H](CC[C@@H]3C[C@@H](O)CC(=O)O3)[C@H]21` [Lovastatin] was tested, and the inhibition at 10 µM ([1]; 48 h) was 87%, the “Quadrant (FIG. 5b)” value [4] was “Q2” and the inhibition at 10 µM [2] was 106%. The “Fibrin % cell toxicity” value (primary rat microglia [3]; rat) was 3%.
In the case of `Cn1c(=O)c2c(ncn2CC2OCCO2)n(C)c1=O` [Doxofylline], the inhibition at 10 µM ([1]; primary microglia HTS, LPS stimulation, compounds at 10 μM) is reported as 18%, the “Quadrant (FIG. 5b)” value ([4]; classification by fibrin and LPS inhibition, HTS at 10 μM) is reported as “Q4” and the inhibition at 10 µM ([2]; primary microglia HTS, fibrin stimulation, compounds at 10 μM) is reported as -42%. For the same compound, the “Fibrin % cell toxicity” value (primary rat microglia [3]; rat) was 0%.
For `CCC1(c2ccccc2)C(=O)NCNC1=O` [Primidone], the inhibition at 10 µM ([1]; 48 h) was 12%, the “Quadrant (FIG. 5b)” value [4] was “Q4” and the inhibition at 10 µM [2] was -15%. For the same compound, the “Fibrin % cell toxicity” value (primary rat microglia [3]; rat) was 1%.
For `NC(=O)C(c1ccccc1)(c1ccccc1)[C@@H]1CCN(CCc2ccc3c(c2)CCO3)C1` [Darifenacin Hydrobromide], the “LPS % cell toxicity” value (primary rat microglia [5]) was 0% and the “Fibrin % cell toxicity” value (primary rat microglia [3]; rat) was 1%.
For `Clc1ccc(C(Cn2ccnc2)OCc2ccsc2Cl)c(Cl)c1` (centres unmarked) [Tioconazole], the LPS % inhibition ([1]; 10 µM) was 8%, the inhibition at 10 µM [1] was 12% and the “Quadrant (FIG. 5b)” value [4] was “Q4”. For the same compound, the “Fibrin % cell toxicity” value (primary rat microglia [3]; rat) was 1%.
In the case of `C#C[C@]1(O)CC[C@H]2[C@@H]3CCC4=CC(=O)CC[C@@H]4[C@H]3CC[C@@]21C` [Norethisterone], the LPS % inhibition [1] is reported as 1%, the “Quadrant (FIG. 5b)” value [4] is reported as “Q4” and the Fibrin % inhibition [2] is reported as 18%. For the same compound, the “Fibrin % cell toxicity” value (primary rat microglia [3]; rat) was 1%.
`CCCCCCCCCCC[C@@H](C[C@@H]1OC(=O)[C@H]1CCCCCC)OC(=O)[C@H](CC(C)C)NC=O` [Orlistat] was tested, and the “Quadrant (FIG. 5b)” value [4, 10] was “Q4”, the inhibition at 10 µM [2, 9] was 17% and the “Fibrin % cell toxicity” value (primary rat microglia [3]; rat) was 1%.
For `O=c1[nH]c(=O)n([C@H]2C[C@H](O)[C@@H](CO)O2)cc1I` [Idoxuridine], the “Quadrant (FIG. 5b)” value [4, 10] was “Q4” and the “Fibrin % cell toxicity” value (primary rat microglia [3]; rat) was 1%.
`[H]/N=C(/N)N/C(=N/[H])NCCc1ccccc1` [Phenformin] was tested, and the inhibition at 10 µM ([1]; 48 h) was 13%, the “Quadrant (FIG. 5b)” value [4] was “Q4” and the inhibition at 10 µM [2] was -30%. The “Fibrin % cell toxicity” value (primary rat microglia [3]; rat) was 1%.
In the case of `O=C1c2ccccc2C(=O)C1c1ccc(Cl)cc1` [Chlorindione], the “Fibrin % cell toxicity” value (primary rat microglia [6]; [11]) is reported as 1%, the LPS % inhibition [1, 12] is reported as 10% and the “Quadrant (FIG. 5b)” value ([4]; primary HTS, 10 μM) is reported as “Q4”. The “LPS % cell toxicity” value (primary rat microglia [7]; [13]) was 0% and the Fibrin % inhibition [2, 14] was −7%.
With `CC(C)(C)CC(C)(C)c1cc(Cc2cc(C(C)(C)CC(C)(C)C)cc(-n3nc4ccccc4n3)c2O)c(O)c(-n2nc3ccccc3n2)c1` [Bisoctrizole] the “Fibrin % cell toxicity” value (primary rat microglia [6]; [11]) was 0%, the inhibition at 10 µM [1, 12] was 20% and the “Quadrant (FIG. 5b)” value ([4]; primary HTS, 10 μM) was “Q4”. The “LPS % cell toxicity” value (primary rat microglia [7]; [13]) was 0% and the inhibition at 10 µM [2, 14] was 33%.
`CC1(C)S[C@@H]2[C@H](NC(=O)C(C(=O)O)c3ccccc3)C(=O)N2[C@H]1C(=O)O` (some centres unmarked) [Carbenicillin] was tested, and the “Fibrin % cell toxicity” value (primary rat microglia [6]; [11]) was 1%, the inhibition at 10 µM [1, 12] was 4% and the “Quadrant (FIG. 5b)” value ([4]; primary HTS, 10 μM) was “Q4”. The “LPS % cell toxicity” value (primary rat microglia [7]; [13]) was 0% and the inhibition at 10 µM [2, 14] was -4%.
`c1ccc2c(c1)CCCC2C1=NCCN1` (centres unmarked) [Tetryzoline] was tested, and the “Fibrin % cell toxicity” value (primary rat microglia [6]; primary microglia HTS, 10 μM, fibrin assay, cell size <150 μm^2 as marker of toxicity) was 0%, the inhibition at 10 µM ([1]; primary microglia HTS, 10 μM, LPS-stimulated, cell size >800 μm^2 as marker of activation) was 16% and the “Quadrant (FIG. 5b)” value ([4]; HTS of 1907 compounds, quadrant by fibrin and LPS inhibition) was “Q4”. For the same compound, the “LPS % cell toxicity” value (primary rat microglia [7]; primary microglia HTS, 10 μM, LPS assay, cell size <150 μm^2 as marker of toxicity) was 0% and the inhibition at 10 µM ([2]; primary microglia HTS, 10 μM, fibrin-stimulated, cell size >800 μm^2 as marker of activation) was -29%.
With `O=C1CN=C(c2ccccc2Cl)c2cc([N+](=O)[O-])ccc2N1` [Clonazepam] the “Fibrin % cell toxicity” value (primary rat microglia [6]; [11]) was 0%, the inhibition at 10 µM [1, 12] was -9% and the “Quadrant (FIG. 5b)” value ([4]; primary HTS, 10 μM) was “Q4”. For the same compound, the “LPS % cell toxicity” value (primary rat microglia [7]; [13]) was 0% and the inhibition at 10 µM [2, 14] was -12%.
With `Cc1onc(-c2ccccc2)c1C(=O)N[C@@H]1C(=O)N2[C@@H]1SC(C)(C)[C@@H]2C(=O)[O-].[Na+]` [Oxacillin Sodium] the “Fibrin % cell toxicity” value (primary rat microglia [6]; primary microglia HTS, fibrin stimulation, decreased size (<150 μm^2) as marker of toxicity) was 0%, the LPS % inhibition [1, 8] was 11% and the “Quadrant (FIG. 5b)” value [4, 10] was “Q4”. The “LPS % cell toxicity” value (primary rat microglia [7]; primary microglia HTS, LPS stimulation, decreased size (<150 μm^2) as marker of toxicity) was 0% and the Fibrin % inhibition [2, 9] was −20%.

From patent publication US20210330611A1, “THERAPY FOR NEUROLOGICAL DISEASES/DISORDERS” (priority 2020, published 2021)
